The results in this text go back to patent US10760087B2, “Compositions, methods, and plant genes for the improved production of fermentable sugars for biofuel production” (priority 2012, dated 2020).

pIC50: −log10 of the molar value. Like-named read-outs stand apart in the source and are kept apart here.

Common to all, as to type: in vivo
The test system of one assay is Zea mays (maize). Nature of the assay: Sugar release by 0.2 M H2SO4 acid hydrolysis of NPA-treated maize. The following applies: two maize cultivars, 120 μM NPA for 2 weeks. The source says: (Results are averages ±s.d. (n=6-9).)
(§1) The connection between auxin transport and increased sugar release was further probed using a specific inhibitor of auxin transport N-1-naphthylphthalamic acid (NPA). […] More importantly, the ability to chemically perturb auxin transport allowed the expansion of the analysis to Zea mays (maize). […] Moreover, it appears that genes and processes identified using Arabidopsis can be transferred to maize and potentially other monocot species dedicated to biofuel production.
Polar auxin transport inhibition was carried out as described by Wu & McSteen, 2007. The two maize cultivars, Syngenta hybrid N39-Q1 and Tuxedo Sweet Corn, were grown in a greenhouse at 24° C. with a 12 hour day/night cycle. The plants were grown four weeks before NPA treatment followed by a two week watering regime using 120 μM NPA (ChemService, West Chester, Pa., USA) or DMSO alone (solvent) applied every two days in a volume of 150 mL for each pot. Plants were fertilized once a week with 20-20-20 fertilizer. After 2 weeks of treatment, whole plants were collected and de-stained in chloroform:methanol (1:1 v/v). Acid hydrolysis was performed as described previously.

The test system of assay [1] is wild type Arabidopsis seedlings. Put plainly: Sugar release by 0.2 M H2SO4 acid hydrolysis of NPA-treated Arabidopsis seedlings. As to conditions: wild type (Col-0) 28 day-old seedlings on MS media with 1 or 5 μM NPA.
Excerpt: FIGS. 4A-4D illustrate the analysis of pin-shaped inflorescence mutants and NPA treatment, resulting in increased saccharification in Arabidopsis and maize. […] (Results are averages ±s.d. (n=4). *, P<0.001 and **, P<0.005 using Student's t-test; all experiments were repeated two times with similar results.)
as §1
The M2 generation of EMS-mutagenized Arabidopsis (Col-0) seeds were chilled for 4 days and sowed onto 0.5× MS plates placed vertically under continuous light conditions at room temperature. […] The samples were incubated at 100° C. for 5 minutes, cooled and the absorbance was read at 660 nm. Approximately 22,000 seedlings from 32 pools were screened from which 63 wall hydrolysis sensitive (whs) mutants were identified as having an absorbance reading greater than 2 standard deviations from wild type (FIG. 5). whs mutants were retested in the M3 generation.

The test system of assay [2] is Arabidopsis wild-type and CesA1/CesA3/CesA6 mutant alleles. Nature of the assay: Root length of Arabidopsis wild-type and CESA mutant lines on cellulose biosynthetic inhibitors (CBI resistance). The following applies: Arabidopsis thaliana. The procedure:
Further genetic screens aimed at identifying resistance to cellulose biosynthetic inhibitors (CBIs) were also conducted. The aim of conducting resistance screens can be to identify potential inhibitor targets. In the case of some CBIs, like isoxaben, resistance screens have been carried out using high concentrations of the inhibitor with the aim of identifying the target protein. Indeed, high resistance to isoxaben is only possible if certain CELLULOSE SYNTHASE (CESA) genes are altered by mutation. An unforeseen consequence of some of the resistance alleles has been to reduce overall cellulose crystallinity, which ultimately leads to overall improved saccharification of starting cell wall material. With this information as a starting point, the inventors sought to identify novel CESA alleles by conducting additional resistance screens, but utilizing much lower CBI concentrations than in the original screens.
EMS mutagenized plants (M2) were screened on 20 nM of two different CBIs, isoxaben or flupoxam. […] In total, 2 million M2 seeds were screened and 12 new CESA alleles were isolated, 3 in CESA1, 8 in CESA3 and 1 in CESA6. All of the new mutant alleles led to single amino acid substitutions, which could not have been predicted a priori.

`O=C(O)c1ccccc1C(=O)Nc1cccc2ccccc12` [NPA, N-1-naphthylphthalamic acid]: in the assay with Zea mays (maize), the “cell wall accessibility (sugar release)” value is given as “significant increase in cell wall accessibility”. Further, the “increase in the release of sugars relative to untreated plants” value in assay [1] was in the range of 1.5 to 2 fold.
`NC(=O)c1nc(-c2ccccc2)n(-c2ccc(Cl)c(COCC(F)(F)C(F)(F)F)c2)n1` [Flupoxam, flupoxam]: the pIC50 in assay [2] (read-out: Concentration at which root length is 50% of wt, allele fpx 1-1, Col-o, CesA3 S(1040)L) was 6.30; in assay [2] (read-out: Concentration at which root length is 50% of wt, allele fpx 1-2, Ler, CesA3 S(1037)F), less than 6.00; in assay [2] (read-out: Concentration at which root length is 50% of wt, allele fpx 1-3, Ler, CesA3 S(983)F), 7.00; in assay [2] (read-out: Concentration at which root length is 50% of wt, allele fpx2-1, Ler, CesA1 G(1013)R) it was less than 6.00; in assay [2] (read-out: Concentration at which root length is 50% of wt, allele fpx 2-2, Ler, CesA1 P(1010)L) it was 6.30 to 7.00; in assay [2] (read-out: Concentration at which root length is 50% of wt, allele fpx 2-3, Ler, CesA1 G(1009)D) it was 6.00.
Turning to `CCC(C)(CC)c1cc(NC(=O)c2c(OC)cccc2OC)on1` [Isoxaben, isoxaben], the pIC50 in assay [2] (read-out: Concentration at which root length is 50% of wt, allele ixr1-1 (published), Col-0, CesA3 G(998)D) is less than 6.00; in assay [2] (read-out: Concentration at which root length is 50% of wt, allele ixr1-2 (published), Col-0, CesA3 T(942)I), 6.30; in assay [2] (read-out: Concentration at which root length is 50% of wt, allele ixr1-3, Ler, CesA3 G(998)S) it was 7.00; in assay [2] (read-out: Concentration at which root length is 50% of wt, allele ixr1-4, Ler, CesA3 R(806)K), 7.30; in assay [2] (read-out: Concentration at which root length is 50% of wt, allele ixr1-5, Ler, CesA3 L(797)F) it was 8.00; in assay [2] (read-out: Concentration at which root length is 50% of wt, allele ixr1-6, Ler, CesA3 S(377)F), 7.30. The pIC50 is 7.30 in assay [2] (read-out: Concentration at which root length is 50% of wt, allele ixr1-7, Ler, CesA3 R(276)H); 7.30 in assay [2] (read-out: Concentration at which root length is 50% of wt, allele ixr 2-1 (published), Col-0, CesA6 R(1064)W); 8.00 in assay [2] (read-out: Concentration at which root length is 50% of wt, allele ixr 2-2, Ler, CesA6 S(1002)F).
